The values that follow come from patent US9687486B2, “Methods of treating atherosclerosis or myeloproliferative neoplasms by administering a lyn kinase activator” (THE TRUSTEES OF COLUMBIA UNIVERSITY IN THE CITY OF NEW YORK, priority 2012, dated 2017).

“Also recorded” adds a separate entry of the source.

Assay [1] deals with T1, c-MPL (Mus musculus, UniProt Q08351).
T1 construct: increasing platelet counts in mice and other species; host or cells: mice (in vivo)
T1 sequence (Q08351 26-625): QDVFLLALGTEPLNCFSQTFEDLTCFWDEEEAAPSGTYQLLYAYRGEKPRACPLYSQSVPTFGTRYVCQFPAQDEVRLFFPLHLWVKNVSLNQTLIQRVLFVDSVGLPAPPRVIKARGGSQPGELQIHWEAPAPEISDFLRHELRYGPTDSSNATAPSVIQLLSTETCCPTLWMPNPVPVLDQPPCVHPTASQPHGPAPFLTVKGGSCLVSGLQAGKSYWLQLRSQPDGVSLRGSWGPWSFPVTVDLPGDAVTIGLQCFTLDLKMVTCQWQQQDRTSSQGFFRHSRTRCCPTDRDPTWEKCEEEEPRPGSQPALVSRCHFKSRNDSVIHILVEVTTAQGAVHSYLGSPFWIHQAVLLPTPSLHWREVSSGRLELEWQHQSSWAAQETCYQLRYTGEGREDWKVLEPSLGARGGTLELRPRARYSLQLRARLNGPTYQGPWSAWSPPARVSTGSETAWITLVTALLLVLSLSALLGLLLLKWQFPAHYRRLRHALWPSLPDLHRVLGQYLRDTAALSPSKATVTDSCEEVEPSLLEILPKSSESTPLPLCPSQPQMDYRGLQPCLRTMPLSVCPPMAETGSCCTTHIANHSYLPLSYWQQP
The following applies: mice and other species; Broudy & Lin 2004; cited from earlier work.

Assay [2] deals with c-MPL. The assay is described as follows: Cell surface c-MPL levels in MkPs by flow cytometry. It counts as cell-based, mouse.
Protocol: Detection of c-MPL from in vivo and in vitro experiments was performed as follows. After harvesting BM progenitor cells, RBCs were lysed and the cells were then resuspended in FACS buffer. Cells were then stained with a cocktail of lineage markers to allow negative selection of BM progenitor cells (Sca1, CD127, CD45R, CD19, CD11b, CD3e, TER-119, CD2, CD8, CD4, and Ly-6C/G; all FITC; eBioscience) and progenitor cell markers, ckit, CD16/CD32 (FcγRII/III), CD34, CD41 and c-MPL or isotype control and allowed to stain on ice for 30 mins. Cells were then washed and stained with a fluorescently conjugated secondary anti-rabbit antibody to detect the anti-c-MPL for a further 30 mins on ice. After this the cells were washed, resuspended in FACS buffer and run on the LSRII. MEPs were identified as lin^− ckit^+CD16/CD32^loCD34^loCD41^−, while MkPs were identified as lin^−ckit^+CD16/CD32^loCD34^loCD41^+.
The next assay relates to c-CBL. The assay is described as follows: c-Cbl tyrosine phosphorylation in MkPs in response to TPO, flow cytometry. It counts as cell-based, mouse. How it is done:
BM progenitor cells were stimulated with TPO at the indicated concentration for the specified period of time at 37° C. and then immediately diluted with ice-cold buffer and placed on ice to prevent further changes in phosphorylation. Cells were then centrifuged and the pellet resuspended in BD fix buffer (BD Biosciences) for 10 mins on ice. The cells were washed with BD flow cytometry staining buffer, centrifuged and then resuspended in BD cytofix/perm buffer III for 20 mins. After this the cells were washed and resuspended in BD staining buffer and incubated with lineage (Sca1, CD127, CD45R, CD19, CD11b, CD3e, TER-119, CD2, CD8, CD4, and Ly-6G; all FITC; eBioscience) and progenitor cell markers, ckit, CD16/CD32 (FcγRII/III), CD34, CD41 and anti-phospho-c-Cbl ([…]/[…]; BD biosciences) or an isotype control for 30 mins on ice. The cells were then washed, resuspended in FACS buffer and run on an LSRII. Phosphorylated c-Cbl was normalized against isotype control staining.

A further assay concerns MkPs. The assay can be described thus: MkP proliferation by EdU incorporation. It counts as cell-based, mouse. To be noted: in the presence of TPO. How it is done:
FIG. 3. Shown are results all from WT, Abcg4^-/- or Lyn^-/- MkPs (n=4). (A) Quantification of tyrosine-phosphorylated c-CBL in response to TPO. (B) Tyrosine-phosphorylated c-CBL levels 5 min after TPO treatment and with or without pretreatment with CD (3 mM), CD-chol (3 mM CD) for 30 min or rHDL (20 μg apoA-I/ml) for 2 hours. (C) Tyrosine-phosphorylated c-CBL with or without 5 min TPO treatment or SU6656 pretreatment (10 μg/ml for 2 h). (D) Cell surface c-MPL with or without TPO or SU6656 treatment for 2 h. (E) Tyrosine-phosphorylated c-CBL (5 min in response to TPO). (F) cell surface c-MPL (2 h TPO treatment) with or without pretreatment with CD-chol (3 mM CD) for 30 min. (G) 16 h EdU incorporation in the presence of TPO and with or without CD (3 mM), CD-Chol (3 mM CD) pretreatment for 30 min or rHDL (20 μg/ml) for 16 […]-5 and p-ERK1/2 levels with or without TPO for 10 minutes. TPO was 30 ng/ml for all the assays shown. Error bars are S.E.M. *P<0.05 WT vs Abcg4^-/- TPO and ^P<0.05 for treatment effect. Blood leukocytes and BM HSPCs were stained and analyzed or sorted as described (Murphy, A. J. et al. 2011). Briefly, BM cells from the mouse femurs and tibias were stained with a cocktail of antibodies to lineage committed cells (CD45R, CD19, CD11b, CD3e, TER-119, CD2, CD8, CD4, Ly-6C/G: All FITC, eBioscience), antibodies to Sca1 (Pacific Blue) and ckit (APC Cy7) to identify HSPC populations and LSK (lin-, Sac1+ and ckit+) cells, and antibodies to CD16/CD32 (FcγRII/III), CD34 to separate CMP (lin-, Sca1-, ckit+, CD34int, […] (lin-, Sca1-, ckit+, CD34int, […] (lin-, Sca1-, ckit+, CD34lo, FcγRII/IIIlo). For DNA content analysis (G2M phase), BM cells were fixed, and stained with DAPI (Invitrogen) prior to flow cytometry analysis. To determine in vivo cell proliferation, EdU (Invitrogen) was injected into mice via the tail vein 24 hours prior to being sacrificed. Cells were immunostained as described above in preparation for flow cytometry. Cells were then fixed and permeabilized using 0.01% saponin (w/v; Fluka) and 1% FCS (v/v) in IC fixation buffer (eBiosciences) for 30 minutes. Cells were then washed and stained with Alexa Fluor-conjugated azides using the Click-iT system (Invitrogen). Proliferation was quantified as percentage of EdU^+ cells by flow cytometry.

In assay [3] the test system is total BM cells from WT or Abcg4−/− mice. The assay can be described thus: MK-CFU assay with total BM cells, with or without CD pretreatment. It counts as cell-based, mouse. To be noted: CD 3 mM pretreatment for 30 minutes. The protocol:
FIG. 13. (A) Fluorescence confocal microscopy of WT or Abcg4^−/− MkPs treated with CD/Bodipy-cholesterol (0.03 mM CD) for 30 min and (B) confocal microscopy and quantification of fillipin stained WT or Abcg4^−/− MkPs. Gene expression was determined by q-PCR in (C) MEPs or (D) GMPs from the WT or Abcg4^−/− BM Ldlr^−/− recipient mice (n=5) fed WTD for 12 weeks. Error bars are S.D (n=10). *P<0.05. (E) MK-CFU assays using total BM cells from WT or Abcg4^−/− mice with or without pretreatment with CD (3 mM) for 30 minutes. Error bars are S.E.M. *P<0.05.
Primary BM HSPC cells obtained by FACS were plated in methylcellulose-based media (5000 cells/assay) containing TPO (50 ng/mL), IL-6 (20 ng/mL), and IL-3 (10 ng/mL) and incubated for 8 days according to manufacturer's protocol (Megacult-C, Stemcell Technologies). Cultures were fixed and the MK colonies visualized by staining for acethylcholinesterase activity. Nuclei were counterstained with Harris' hematoxylin. Colonies containing more than 3 megakaryocytes were scored as CFU-Mk.

The test system of assay [4] is c-MPL(W515L) positive megakaryocyte progenitor cells. It counts as cell-based, mouse. To be noted: tolimidone 10 μM, 10 days, IL-3 and TPO 1 ng/mL. How it is done: FIG. 21. BM cells of the recipient transplanted with BM cells expressing c-MPL(W515) were cultured for 10 days in the presence of IL-3 ([…]) and TPO (1 ng/mL) with or without tolimidone (10 μM). Megakaryocyte (Mk) colonies expressing c-MPL (W515) were identified by cell morphology and GFP expression. Identity of MK was also confirmed by staining for acetylcholinesterase activity. Count of Mk colonies (a); Mk count per colony (b); total colony per plate (c); fluorescence microscopy of a single colony (d). *p<0.05 between vehicle and tolimidone treatment.
Long-term, repeated rHDL infusions are less desirable relative to orally bioavailable small molecule compounds in treatment of chronic diseases such as MPNs. […] To assess the possibility that tolimidone limits megakaryopoiesis and thrombocytosis induced by c-MPL(W515), megakaryocyte colony formation assays with BM cells derived from mice with retroviral co-expression of c-MPL(W515L) and GFP in BM cells were used. […] Under the conditions of low TPO (1 ng/ml), the majority of cell colonies were non-megakaryocyte colonies.

In assay [5] the test system is BM cells derived from Jak2+/VF/Vavcre mice. The assay can be described thus: Megakaryocyte colony formation assay, BM cells from Jak2+/VF/Vavcre mice. It counts as cell-based, mouse. To be noted: tolimidone 10 μM, 14 days. The protocol: FIG. 22. BM cells from Jak^2+/VF/Vav^cre mice were plated and cultured for 14 days in the presence of IL-3 ([…]) and TPO (1 ng/mL) with or without tolimidone (10 μM). Megakaryocyte (Mk) colony was identified by cell morphology. Colony number/plate (a); Mk count/colony (b); and representative Mk colonies (c). Arrows indicate the projected proplatelet like structures from mature megakaryocytes. *p<0.05 between vehicle and tolimidone (10 μM).
In order to assess this possibility, megakaryocyte colony formation assay with BM cells derived from Jak2+/VF/Vavcre mice were performed. […] Moreover, many of the mature megakaryocytes in the vehicle group started to form long-projected cell structures resembling proplatelets.

In a further assay the test system is platelets. The assay is described as follows: Platelet count in Abcg4−/− mice with tolimidone. It counts as in vivo, mouse.
A further assay concerns the target Lyn tyrosine kinase (Homo sapiens, UniProt P07948). The following applies: Saporito et al. 2012; cited from earlier work.
For another assay, the system named is ulcer. To be noted: rats, 10 mg/kg, oral; Lipinski et al. 1980; cited from earlier work.

Chain of Lyn tyrosine kinase (P07948 whole entry): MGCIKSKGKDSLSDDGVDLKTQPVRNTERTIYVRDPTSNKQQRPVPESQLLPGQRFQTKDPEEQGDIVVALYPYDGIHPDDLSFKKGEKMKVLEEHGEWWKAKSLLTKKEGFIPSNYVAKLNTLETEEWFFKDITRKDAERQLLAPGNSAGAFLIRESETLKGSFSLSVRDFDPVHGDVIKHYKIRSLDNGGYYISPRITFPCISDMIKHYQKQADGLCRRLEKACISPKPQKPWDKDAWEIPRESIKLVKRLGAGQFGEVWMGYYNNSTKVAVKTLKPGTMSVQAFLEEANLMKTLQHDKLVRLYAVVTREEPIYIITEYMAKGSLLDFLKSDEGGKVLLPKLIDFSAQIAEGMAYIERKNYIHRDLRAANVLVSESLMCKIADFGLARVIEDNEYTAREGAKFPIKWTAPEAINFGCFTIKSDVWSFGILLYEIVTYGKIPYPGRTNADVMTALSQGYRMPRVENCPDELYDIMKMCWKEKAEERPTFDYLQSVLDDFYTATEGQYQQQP

Consider Romiplostim, for which the platelet counts entry at c-MPL [1] is given as “increasing”.
Turning to cyclodextrin [CD], in the assay on c-MPL [2] (WT and Abcg4−/− MkPs, TPO 30 ng/ml), the “cell surface c-MPL levels” value is given as “significantly reduced”. The c-CBL tyrosine phosphorylation result with c-CBL (WT and Abcg4−/− MkPs) is “increased”. Besides, the MkP proliferation entry in the assay with MkPs (Lyn−/− MkPs) is given as “completely unresponsive”; with MkPs (WT MkPs), “decreased”; in the assay on MkPs (WT and Abcg4−/− MkPs), “significantly reduced”. Moreover, in assay [3], the “increase in megakaryocyte colonies associated with ABCG4 deficiency” value is “reversed”.
For the compound `Cc1cccc(Oc2cnc(=O)[nH]c2)c1` [Tolimidone], the “cell surface c-MPL levels” value in the assay with c-MPL [2] (Abcg4−/− MkPs, TPO 30 ng/ml) is on record as “reverses; also recorded: reduces”; with c-MPL [2] (Abcg4−/− MkPs, tolimidone 10 μM and TPO for 2 h (FIG. 16)), “significantly reduced”; in the assay with c-MPL [2] (WT MkPs, TPO 30 ng/ml), “decreased”; in the assay on c-MPL [2] (WT and Abcg4−/− MkPs, BM cells of hypercholesterolemic Ldlr−/− mice, Tolimidone 10 μM, 30 ng/ml TPO, 2 hours (FIG. 20)), “significantly reduced”. Also, the “effects in Lyn−/− MkPs (c-MPL, c-Cbl phosphorylation, proliferation)” value in the assay with c-MPL [2] (Lyn−/− MkPs, expected) is on record as “no effects”. For the same compound, the figures for the c-CBL tyrosine phosphorylation result with c-CBL (Abcg4−/− MkPs) and in the assay with c-CBL (WT MkPs) were “increases” and “increased”, respectively. The MkP proliferation entry is “decreases” with MkPs (Abcg4−/− MkPs) and “decreased” with MkPs (WT MkPs). Further, in assay [4], the “GFP-positive megakaryocytes in each colony” value is “significantly reduced”. The “number of GFP-positive megakaryocyte colonies” value in [4] is given as “significantly reduced”. Also, the “total number of colonies” value in assay [4] is given as “did not significantly affect”. Further, the “proportion of megakaryocytes that generated proplatelets” value in assay [5] is “reduced”. Also, the “number of megakaryocyte colonies” value in assay [5] (IL-3 and TPO 1 ng/mL) is on record as “decreased”. The “number of megakaryocytes in each colony” value in [5] (IL-3 and TPO 1 ng/mL) is listed as “decreased”. Moreover, the platelet count result in the assay on platelets was “reduces”. Moreover, the Lyn kinase activity entry on Lyn tyrosine kinase was “selectively increases; also recorded: potent and selective”. Further, the anti-ulcer activity result in the assay with ulcer is on record as “oral-active anti-ulcer activity”.
